Data reported in patent publication US12325736B2, “Transduced T cells expressing human SSTR2 and application thereof” (Cornell University, priority 2016, dated 2025).
Positions count from the first letter of the chain named. In names and notes the source's numbering stands.

Legend:
[1] = PET/CT DOTATOC uptake in lungs, 8505C mouse model and controls; format: in vivo, NSG mice; details: NSG
Description: 1×10^6 8505c-FLuc^+GFP^+cells were injected into NSG mice via tail vein. 2-3×10^6 primary human T cells were injected via tail vein 7-15 days after tumor cell injection. Luminescence imaging of tumor xenografts in live mice was performed using a whole body optical imager (In-Vivo Extreme 4MP, Bruker). Mice were first anesthetized with 3% isoflurane at 2 L/min O2 and subsequent to this, maintained at 2% isoflurane at 2 L/min O2. Growth or reduction in tumor burden was estimated by integration of luminescence over the lungs or the entire mouse body. Ex-vivo fluorescence imaging of mouse liver, lungs, spleen and resected tumors were performed using a whole body optical imager (In-Vivo F Pro, Bruker).
(§1) Projection data was acquired in a cone-beam geometry with approximately […] steps at 1 degree angular increments. At least 10 million coincidence events were acquired for PET per study using a 250 to 750 keV energy window and a 6 ns timing window. […] To compute DOTATOC uptake by Jurkat tumors, the ellipsoidal ROIs (Amide) were placed to enclose subcutaneous tumors that closely match overall tumor size and shape. For systemic 8505C tumor models, ellipsoids were drawn separately on the left and right sides of lungs to enclose much of five lobes of mouse lungs. The % ID/cm^3 values, computed relative to the counts in a reference tube, can be approximated to a standard uptake value (SUV^61) by dividing % ID/cm^3 by four, assuming injection efficiency of 100% and 25 g of body weight. Visualization and analyses of PET/CT images were performed using Amide (amide.sourceforge.net).

[2] = PET/CT DOTATOC uptake by subcutaneous Jurkat T cell xenografts (0-100% SSTR2+); format: in vivo, NSG mice; details: NSG (NOD/LtSz Prkdc^scid Il2rg^tm1Wjl/J), mouse, subcutaneous Jurkat tumor xenograft
Description: All animal experiments were performed in strict accordance with the recommendations in the Guide for the Care and Use of Laboratory Animals of the National Institutes of Health. This study's animal protocol was approved by the Institutional Laboratory Animal Use and Care Committee of Weill Cornell Medicine. SSTR2 expressing Jurkats were spiked with increasing numbers of non-transduced Jurkats to derive distinct cultures containing defined percentages of SSTR2 expression ranging from 100-0%. For each subcutaneous xenograft, 5×10^6 total cells were resuspended in 100 μl Matrigel Basement Membrane Matrix (Corning) and injected bilaterally into nonobese diabetic (NOD)/LtSz Prkdc^scid I12rg^tm1Wj1/J (NSG) mice (Jackson Laboratory). Measurements of tumor size were made using an external digital caliper. Tumor volume was calculated by using the modified ellipsoid formula 1/2(Length×Width^2). Length was measured as the longer dimension. Each dimensional measurement was rounded to the nearest 0.5 cm.
as §1

SSTR2 = SSTR2 (Homo sapiens, UniProt P30874); test: Octreotide-induced SSTR2 internalization in SSTR2-transduced Jurkat T cells by flow cytometry; format: cell-based; details: 1 μM octreotide, 30 min, 37° C.
Description: SSTR2-transduced Jurkat T cells were incubated with or without octreotide, 1 μM (Sigma) for 30 min at 37° C. Subsequent internalization of SSTR2 was measured by flow cytometry analysis of SSTR2 expression. […] Values obtained were used for Scatchard analysis to estimate affinity and site density.

ICAM-1 = ICAM-1 (Homo sapiens, UniProt P05362); test: SPR measurement of LFA-1 I domain affinity to ICAM-1; format: binding
Chain of ICAM-1 (P05362 28-532): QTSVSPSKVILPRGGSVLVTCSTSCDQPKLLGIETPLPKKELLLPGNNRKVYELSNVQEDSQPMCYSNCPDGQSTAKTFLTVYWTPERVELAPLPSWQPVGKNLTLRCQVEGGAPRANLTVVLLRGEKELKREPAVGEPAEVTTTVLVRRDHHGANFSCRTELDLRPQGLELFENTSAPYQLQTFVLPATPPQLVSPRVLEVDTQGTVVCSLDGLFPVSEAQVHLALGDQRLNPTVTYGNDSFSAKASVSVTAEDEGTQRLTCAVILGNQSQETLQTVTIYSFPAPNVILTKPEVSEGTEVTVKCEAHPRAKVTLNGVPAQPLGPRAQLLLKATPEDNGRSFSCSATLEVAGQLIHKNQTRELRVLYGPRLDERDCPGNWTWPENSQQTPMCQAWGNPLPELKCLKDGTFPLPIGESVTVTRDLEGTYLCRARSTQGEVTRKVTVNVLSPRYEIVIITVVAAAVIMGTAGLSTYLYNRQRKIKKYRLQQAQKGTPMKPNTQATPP
Description: Affinity is first measured by surface plasmon resonance (e.g., Biacore) to assess 1.1 binding affinity between I domain and ICAM-1.

Chain of SSTR2 (P30874 whole entry): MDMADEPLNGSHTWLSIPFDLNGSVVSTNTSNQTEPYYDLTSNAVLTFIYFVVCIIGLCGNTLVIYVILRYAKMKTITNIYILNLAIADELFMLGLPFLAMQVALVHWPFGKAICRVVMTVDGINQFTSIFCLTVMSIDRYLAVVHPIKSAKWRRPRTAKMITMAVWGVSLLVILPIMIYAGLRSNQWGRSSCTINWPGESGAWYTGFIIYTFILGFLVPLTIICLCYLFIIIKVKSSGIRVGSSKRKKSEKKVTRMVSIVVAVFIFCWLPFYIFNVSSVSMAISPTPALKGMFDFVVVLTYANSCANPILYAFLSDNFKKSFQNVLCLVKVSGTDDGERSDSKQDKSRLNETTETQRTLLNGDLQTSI

C[C@@H](O)[C@@H]1NC(=O)[C@H](CCCCN)NC(=O)[C@@H](Cc2c[nH]c3ccccc23)NC(=O)[C@H](Cc2ccc(O)cc2)NC(=O)[C@@H](NC(=O)[C@@H](Cc2ccccc2)NC(=O)CN2CCN(CC(=O)O)CCN(CC(=O)O)CCN(CC(=O)O)CC2)CSSC[C@@H](C(=O)N[C@H](CO)[C@@H](C)O)NC1=O [DOTATOC, 1,4,7,10-tetraazacyclododecane-N^I,N^II,N^III,N^IIII-tetraacetic acid (D)-Phe^1-Tyr^3-octreotide]
tissue uptake per volume ([1]; lungs, DOTATOC uptake in the lungs, mice treated with RR T cells): 1 %ID/mL | tissue uptake per volume ([1]; lungs, DOTATOC uptake, mice with no tumors infused with SS T cells): 0.7 %ID/mL | tissue uptake per volume ([1]; thoracic cavity, non-specific DOTATOC uptake in the thoracic cavity, high tumor burden, 23-27 days post-tumor xenograft, no T cells or SS T cells): 1.3 ± 0.5 %ID/mL | tissue uptake per volume ([2]; Jurkat tumors containing 0% SSTR2+ cells): 0.6 to 0.8 %ID/mL | tissue uptake per volume ([2]; tumors below 65 mm^3, 0% SSTR2+): 0.44 ± 0.2 %ID/mL | tissue uptake per volume ([2]; tumors below 65 mm^3, 1% SSTR2+): 0.64 ± 0.4 %ID/mL | tissue uptake per volume ([2]; tumors below 65 mm^3, 10% SSTR2+): 0.83 ± 0.5 %ID/mL | tissue uptake per volume ([2]; tumors below 65 mm^3, 100% SSTR2+): 3.4 ± 1.7 %ID/mL | tissue uptake per volume ([2]; tumors larger than 65 mm^3, 0% SSTR2+): 0.8 ± 0.35 %ID/mL | tissue uptake per volume ([2]; tumors larger than 65 mm^3, 0.1% SSTR2+): 1.1 ± 0.51 %ID/mL | tissue uptake per volume ([2]; tumors larger than 65 mm^3, 1% SSTR2+): 2 ± 0.77 %ID/mL | tissue uptake per volume ([2]; tumors larger than 65 mm^3, 10% SSTR2+): 2.8 ± 1.1 %ID/mL | tissue uptake per volume ([2]; tumors larger than 65 mm^3, 100% SSTR2+): 7.1 ± 2.3 %ID/mL

C[C@@H](O)[C@@H]1NC(=O)[C@H](CCCCN)NC(=O)[C@@H](Cc2c[nH]c3ccccc23)NC(=O)[C@H](Cc2ccccc2)NC(=O)[C@@H](NC(=O)[C@H](N)Cc2ccccc2)CSSC[C@@H](C(=O)N[C@H](CO)[C@@H](C)O)NC1=O [octreotide]
surface expression of SSTR2 (antibody binding) (SSTR2): reduced surface expression of SSTR2

B1: F292G: LFA-1 I domain mutant F292G, G128-G311 of SEQ ID NO: 1 (protein, listed as Homo sapiens)
chain: GNVDLVFLFDGSMSLQPDEFQKILDFMKDVMKKLSNTSYQFAAVQFSTSYKTEFDFSDYVKWKDPDALLKHVKHMLLLTNTFGAINYVATEVFREELGARPDATKVLIIITDGEATDSGNIDAAKDIIRYIIGIGKHFQTKESQETLHKFASKPASEFVKILDTGEKLKDLFTELQKKIYVIEG
Kd (ICAM-1; SPR measurements, I domain to ICAM-1): 100 nM

B2: F265S/F292G (DM): LFA-1 I domain double mutant F265S/F292G, G128-G311 of SEQ ID NO: 1 (protein, listed as Homo sapiens)
chain: B1 chain with F138S
affinity higher than the wild-type (WT) I domain (ICAM-1; vs WT KD=1.5 mM): approximately 200,000 fold
